Entries after “also recorded” stand apart in the source; their conditions may differ. Blank lines part the entries; values can stand above or below the compound they belong to.
How the values were obtained:
[1] = test system: macrophage cell line J774; experiment: Alamar Blue macrophage J774 viability assay; format: cell-based; conditions: Mus musculus, J774, 72 h, 72 hours culture with compound
Method: Initial screening of candidate compounds was performed using viability assays on cultures of the macrophage cell line J774, which have been used before as a model system for osteoclast survival (see, e.g., Luckman et al., 1998). The assays are based on the survival of the J774 macrophage cell line; macrophages are closely related to osteoclasts, and contain similar high levels of esterase activity.
J774 cells were plated at 10^4 cells per well in 150 μL αMEM (α Modified Eagle Medium) in 96-well plates and grown overnight. The next day, test compounds were added to the cultures, and cultures were continued for another 72 hours. At the end of the culture period, cell survival was determined using an Alamar Blue assay as previously described (see, e.g., Nociari et al., 1998).
Alamar Blue is an oxidation-reduction sensitive indicator. The dye itself is in the oxidised state, which is blue and non-fluorescent. The dye can accept electrons from reducing species, such as NADPH and FADH, to form a reduced dye species, which is red and fluorescent. Thus the transformation from oxidised form to reduced form can be measured by fluorimetric or colourimetric means. For fluorescence measurements, 530-560 nm excitation and 590 nm emission wavelengths are typically used. For colourimetric measurements, absorbance is measured at 570 nm (reduced form) and 600 nm (oxidised form) and a simple calculation performed to determine the relative quantities of the two species.
A high ratio of the reducing species, NADPH and FADH, to the corresponding oxidised species, NADP and FAD, is an indicator that cells are proliferating and viable. A low ratio indicates cells that are quiescent or non-viable.
Briefly, Alamar Blue (Biosource International) was added undiluted to the each well (1:10 v/v, 15 μL). The plate was incubated at 37° C. for 3-4 hours and the fluorescence was measured at 590 nm, with a 25 nm bandwidth. A high reading indicated cells with normal viability, and a low reading indicated cells that have been damaged and are no longer proliferating normally. The controls gave a high fluorescence reading, indicating a high number of live, healthy cells. A potent test compound gave a low fluorescence reading. The average results for each test compound (n=5) were expressed as a percent (%) of the average control value.
Addition of Compounds. All of the compounds studied were made up as 100 mM solutions in DMSO. These stock solutions were then diluted 100 or 1000× in culture medium (αMEM). From these 1 mM or 100 μM solutions, convenient quantities (3-15 μL) were added directly to the wells so as to give the desired final compound concentration.

[2] = test system: mouse-ovariectomy bone loss model; experiment: Ovariectomy induced bone loss (pQCT trabecular bone density); format: in vivo; conditions: OVX mice, 20 mg/kg orally
Method: Animals. Female 9 week-old C57/BL6 mice were used. Animals were housed in a designated animal facility and routinely maintained on a 12 hour:12 hour light:dark cycle and given ad libitum access to food and water.
Ovariectomy induced bone loss. Bilateral ovariectomy (Ovx) was performed under general anaesthesia. Sham ovariectomy (Sham) was similarly performed but with externalisation and replacement of the ovaries. Animals were given a daily injection of (a) test compound (e.g., 10 mg/kg) in vehicle (corn oil), or (b) vehicle (corn oil). After 21 days, the animals were killed, and the tibial bones were dissected and used for bone mineral density measurements and histomorphometric analysis (see below).
Bone Mineral Measurements. Measurements of bone mineral density (BMD) at the left proximal tibial metaphysis were determined by peripheral quantitative computed tomography (pQCT) using an XCT Research M bone densitometer with a voxel size of 70 μm and analysis software version 5.1.4 (Stratec Medizintechnik, Pforzheim, Germany). […]
Statistical Analyses. […] Significant differences between groups were determined by ANOVA followed by post-hoc testing using Dunnet's post-test. […]
Compounds ABD68, ABD328 and ABD355 (dosage 20 mg/kg, orally) were investigated in vivo using ovariectomy induced bone loss assessed using peripheral quantitative computed tomography, as described above.

[3] = test system: mouse collagen-induced arthritis model; experiment: Collagen-induced arthritis model, joint inflammation scoring; format: in vivo; conditions: for total joint score (sum of joint inflammation scores of the study group): 21-day period, n=10, untreated group 47, FIG. 3
Method: Collagen-induced arthritis (CIA) was induced in 8-week old male DBA/1 mice, by intradermal injection of 100 μL of chicken collagen type II (2 mg/mL) suspended in complete Freund's adjuvant supplemented with 2 mg/mL devitalised M. Tuberculosis into the base of the tail. This will lead to joint inflammation in >80% of the animals within 4 weeks. Treatment with ABD328 (10 mg/kg/day, orally or i.p., delivered in corn oil) was started when joint inflammation became apparent in the first animals (in this experiment 15 days after injection), and the experiment was terminated 3 weeks later. For each animal, the scores for all four joints were added (maximal score=12).
Compound ABD328 (dosage 10 mg/kg, i.p. or oral) was investigated in vivo using the collagen-induced arthritis model, assessed using joint inflammation severity scoring, as described above.

[4] = In vivo pharmacokinetics: serum levels after oral dosage (HPLC/UV); set-up: species or system rat; conditions: rats, 10 mg/kg oral
Method: Absorption and metabolic stability were studied using an in vivo pharmacokinetics assay. Drug levels assessed using HPLC/UV.
Following overnight starvation, male Wistar rats (250 g) were given a bolus gavage of 500 μL of a solution of test compound in corn oil (5 mg/ml). Blood samples (1 mL, whole blood) were taken at various time intervals and the serum collected following centrifugation. Samples were frozen until required for analysis.
Ethyl acetate (4 mL) was added to the defrosted serum and the samples mixed for 20 minutes. Following centrifugation, the ethyl acetate layer was collected and evaporated under a stream of nitrogen. The residue was reconstituted in mobile phase and 20 μL injected onto the chromatogram.
Standard calibration curves were prepared for each of the test compounds and were linear in the range of 1 ng/mL to 250 ng/mL.
• Column: HIRPB C18 (150×4.6 mm). • Mobile phase: 60% 25 mM ammonium acetate, pH 4; 40% acetonitrile. • Flow rate: 1 mL/minute. • Detection: Peaks detected by UV absorption at λmax in the range of 240-275 nm.
Serum levels of compounds ABD328, ABD345 and ABD430 following oral dosage (10 mg/kg) over the course of 60 minutes were investigated in vivo in rats using an HPLC/UV detection system, as described above.

[5] = Table 3 (variation of W), J774 cells

SMILES: OCCCCC[C@H](O)c1ccc(-c2ccc(Cl)cc2Cl)cc1 [ABD513, (S)-1-(2′,4′-Dichloro-biphenyl-4-yl)-hexane-1,6-diol]
IC50 [1, 5]: 11 ± 4 µM

SMILES: OCCCCC/C(=N\O)c1ccc(-c2ccc(Cl)cc2Cl)cc1 [ABD468, 1-(2′,4′-Dichloro-biphenyl-4-yl)-6-hydroxy-hexan-1-one oxime]
IC50 [1, 5]: 7 ± 2 µM

SMILES: OCCCCCC(O)c1ccc(-c2ccc(Cl)cc2Cl)cc1 (racemic) [ABD300, (R,S)-1-(2′,4′-Dichloro-biphenyl-4-yl)-hexane-1,6-diol]
IC50 [1, 5]: 8 ± 2 µM

SMILES: OCCCCC[C@@H](O)c1ccc(-c2ccc(Cl)cc2Cl)cc1 [ABD511, (R)-1-(2′,4′-Dichloro-biphenyl-4-yl)-hexane-1,6-diol]
IC50 [1, 5]: 4 ± 2 µM

metabolic stability (in words) ([4]; in vivo serum levels): good degree of metabolic stability
oral absorption (blood serum levels), in words ([4]; over 60 minutes, FIG. 2): well absorbed
SMILES: O=C(CCCCCO)c1ccc(-c2ccc(Cl)cc2Cl)cc1 [ABD328, 1-(2′,4′-Dichloro-biphenyl-4-yl)-6-hydroxy-hexan-1-one]
effect on ovariectomy-induced bone loss (in words) ([2]; 20 mg/kg): fully reverse the effects of ovariectomy-induced bone loss; also recorded: fully prevents bone loss
increase in trabecular bone density ([2]; relative to the control group (OVX no drug: 34% decrease), FIG. 1): 6%
total joint score (sum of joint inflammation scores of the study group) ([3]; 10 mg/kg/day i.p.): 5
total joint score (sum of joint inflammation scores of the study group) ([3]; 10 mg/kg/day orally): 13
effect on collagen-induced arthritis / inflammation (in words) ([3]; 10 mg/kg/day, i.p. or oral): fully reverse the effects of collagen-induced arthritis; also recorded: prevents inflammation
IC50 ([1]; Table 2, J774 cells): 12 ± 2 µM
IC50 [1, 5]: 11 ± 3 µM

— US7560597B2, “2′,4′-dichloro-biphenyl-4-yl-hydroxy-ketones and related compounds and their use as therapeutic agents” (The University Court of the University of Aberdeen, priority 2007, dated 2009)
